Series [1] can be described thus: Toxicity seen in the rat PCP treatment study. Also on record: species or system Sprague-Dawley rats. The following applies: in vivo, iv, 5 mg/kg. On the procedure:
(§1) The activity of the compounds against P. carinii was carried out according to an established method. See Tidwell, R. R., et al., J. Med. Chem. 33, 1252-1257 (1990); Jones, S. K., et al., Antimicrob. Agents Chemother. 34, 1026-1030 (1990); Tidwell, R.R., et al., Antimicrob. Agents Chemother. 37, 1713-1716 (1993). The induction and treatment of P. carinii pneumonia (PCP) was carried out with only minor alterations to published methods. See Frenkel, J.K. et al., Lab. Invest. 15, 1559 (1966); Hughes, W.T. et al., Antimicrob. Agents Chemother. 5, 289 (1974). Briefly, male Sprague-Dawley rats (barrier raised, not certified virus-free) weighing 150-200g each, were obtained (Hilltop Laboratories, Scottsdale, PA). Immediately upon arrival, the animals were caged individually and begun on a low protein (8%) diet and on drinking water containing tetracycline (0.5 mg/mL) and dexamethasone ([…]). This regimen was continued for eight weeks. At the beginning of the seventh week, animals were divided into groups of 8 or more, and the test compounds were administered for 14 days by single daily IV injection. Generally, the daily dose was 5 mg/kg of body weight and was dissolved in 0.4 mL of saline. Saline- and pentamidine-treated groups were included as controls.

A further series relates to Pneumocystis carinii. Briefly: Rat model of P. carinii pneumonia (PCP): cysts per gram of lung. The series is classed as in vivo. As to conditions: for response vs control in vivo at 5 mg/kg: immunosuppressed rats, dose 5.0 mg/kg iv once daily for 14 days, means ± SEM, percent of saline-treated controls; for anti-P. carinii activity (in words): rat model, carbazoles tested at one half the dose of pentamidine. As to the method: as §1
Animals were sacrificed at the end of the eighth week by chloroform inhalation. The right lung was inflated in situ with 10% formalin and fixed for histological examination. The lung tissue was sectioned in the long axis and exposed to the GMS stain, which selectively identified the walls of the P. carinii cysts.
The left lung was weighed, ground through a No. 60 wire mesh screen, and suspended 1:10 (wt/vol) in 10 mM β-mercaptoethanol-Hanks' balanced salts solution (HBSS) without cations. Slides were prepared by spotting 5 µL of lung homogenate diluted 1:10 in HBSS with β-mercaptoethanol and allowed to air dry. The slides were stained with cresyl violet, and the cysts were counted by a blinded protocol. The number of cysts per gram of original lung tissue was calculated, and the groups were reported as the percentages of saline-treated controls.
Anti-P. carinii activity is measured by the reduction in the number of cysts per gram of lung tissue for treated animals as compared to untreated controls. The anti-P. carinii value for each compound is expressed as the percent of cysts in the treatment group as compared to the control group. […] It should be noted that compound 3 was tested at one half the dose of pentamidine as were all of the carbazoles.

The subject of the next series is Calf thymus DNA. Briefly: DNA binding by thermal melting (ΔTm). As to conditions: for DNA binding calf thymus ΔTm(°C): absorbance at 259 nm, heated at 18°C/h, average of at least two determinations. As to the method: DNA binding potency was determined for each of the compounds because previous work had determined that the binding of dicationic molecules to DNA is a prerequisite for their antimicrobial activity. See e.g., Tidwell, R.R., et al., Antimicrob. Agents Chemother. 37, 1713-1716 (1993); Bell, C. A., et al., Antimicrob. Agents Chemother. 35, 1099-1107 (1991). The DNA binding of the compounds was determined by the change in melting of the DNA bound to the experimental compounds. The method is well documented and is a considered a standard method for determining DNA binding strength. See Cory, M.. et al., J. Med. Chem. 25, 431-438 (1992). In brief, a UV-visible light spectrophotometer with a cuvette changer was interfaced to a microcomputer that recorded the cuvette temperature and DNA-absorbance data at 259 nm as the sample was heated at a rate of 18°C/h. Calf thymus DNA was used at an initial absorbance of 0.3A259. The midpoint of each denaturation curve was determined after graphic selection on the computer of the starting and ending absorbance temperature for each curve of each experiment. DNA or DNA bound to experimental compound was run in each experiment and the ΔTms were determined from the polynucleotide Tm for that experiment. […] The data reported in Table 1 represent the average of at least two determinations of ΔTm.

In another series the test system is Cryptococcus neoformans. Briefly: Broth dilution antifungal susceptibility test (NCCLS M27-P), MIC and MFC. The series is classed as cell-based. On the procedure: (§2) Activity of the compound was assessed using a standard in vitro fungal cell growth inhibition assay (the broth dilution antifungal susceptibility testing of yeast, proposed standard document M27-P, validated by the National Committee for Clinical Laboratory Standards, 1992). Briefly, this broth dilution procedure uses PMI media, and an inoculum of […] with media alone. After the minimal inhibitor concentration was determined by the above procedure, tubes with no visible growth were subcultured to determine the minimum fungicidal concentration by using criteria of less than 0.01% survival of original inoculum. Two organisms were tested: (1) H99, a clinical isolate of C. neoformans which is fully susceptible to azoles and polyenes in vitro and in vivo; and (2) A39, a clinical isolate of C. albicans which is fully susceptible to azoles and polyenes.
(§3) The MFC's (minimum fungicidal concentration) for compound 9 against these two important AIDS-associated fungal infections are shown in Table 2.
Background: Broth dilution looks for growth in wells or tubes with falling amounts of substance.

In the next series the test system is C. albicans. The description is as above. The series is classed as cell-based. On the procedure: as §2, §3
The test system of another series is Cryptosporidium parvum. Description: Neonatal mouse model of Cryptosporidium parvum infection: oocysts in the bowel. The series is classed as in vivo. As to conditions: for Efficacy: C. parvum. As to the method: Besides the potency shown by this compound against P. carinii infection in the rat model, the compound was also effective in a neonatal mouse model of Cryptosporidium parvum infection. This model has been described in detail in previous reports. See Blagburn, B. L.; et al., Antimicrob. Agents Chemother. 35, 1520-1523 (1991). The compound's activity against C. parvum is measured by a reduction in the number of oocysts detected in the bowel of treated mice compared to untreated controls.

[2] abbreviates: Pneumocystis carinii, 336 h, read-out: in vivo activity against PCP cysts/g lung % control.
Setting [3] is: in vitro fungal cell growth inhibition.

Counter-ions that a name gives are not always drawn.

In series [1], `Cl.Cl.N=C(N)c1ccc2[nH]c3ccc(C(=N)N)cc3c2c1` [Compound 1, 3,6-diamidinocarbazole dihydrochloride] displayed a toxicity of 0. For the same compound, in the series with Pneumocystis carinii (setting [2]), the response vs control in vivo at 5 mg/kg was 0.8 ± 0.36%. For the same compound, the “DNA binding calf thymus ΔTm(°C)” value in the series with Calf thymus DNA was determined as 17.2 °C.

Turning to `CC(C)N=C(N)c1ccc2[nH]c3ccc(C(N)=NC(C)C)cc3c2c1` [Compound 2, 3,6-diisopropylamidinocarbazole dihydrochloride], the toxicity in series [1] stood at 0. Also, the response vs control in vivo at 5 mg/kg in the series on Pneumocystis carinii (setting [2]) was 0.11 ± 0.08%.

The compound `c1cc2[nH]c3ccc(C4=NCCN4)cc3c2cc1C1=NCCN1` [Compound 3, 3,6-bis(2-imidazolinyl)carbazole dihydrochloride] yielded a toxicity in series [1] of 0. Also, the response vs control in vivo at 5 mg/kg in the series on Pneumocystis carinii (setting [2]) came to 0.06 ± 0.02%.

On to `Cn1c2ccc(C3=NCCN3)cc2c2cc(C3=NCCN3)ccc21` [Compound 4, 3,6-bis(2-imidazolinyl)-9-methylcarbazole dihydrochloride], for which, in the series with Pneumocystis carinii (setting [2]), the response vs control in vivo at 5 mg/kg came to 0.17 ± 0.11%.

`c1cc2c(cc1C1=NCCN1)c1cc(C3=NCCN3)ccc1n2CC1CCCCC1` [Compound 5, 9-cyclohexylmethyl-3,6-bis(2-imidazolinyl)carbazole dihydrochloride]: in series [1], the toxicity is on record as 0. Besides, the response vs control in vivo at 5 mg/kg with Pneumocystis carinii (setting [2]) was 35.8 ± 4.87%.

Consider `Cn1c2ccc(C3=NCCCN3)cc2c2cc(C3=NCCCN3)ccc21` [Compound 6, 3,6-bis[2-(1,4,5,6-tetrahydropyrimidinyl)]-9-methylcarbazole dihydrochloride], for which, in the series on Pneumocystis carinii (setting [2]), the response vs control in vivo at 5 mg/kg worked out at 0.14 ± 0.05%. Moreover, in the series on Calf thymus DNA, the “DNA binding calf thymus ΔTm(°C)” value came to 13.6 °C.

For the compound `c1cc2c(cc1C1=NCCCN1)c1cc(C3=NCCCN3)ccc1n2CC1CCCCC1` [Compound 7, 3,6-bis[2-(1,4,5,6-tetrahydropyrimidinyl)]-9-cyclohexylmethylcarbazole dihydrochloride], the response vs control in vivo at 5 mg/kg in the series with Pneumocystis carinii (setting [2]) worked out at 4.1 ± 1.59%. Moreover, the “anti-P. carinii activity (in words)” value in the series with Pneumocystis carinii was “failed to exhibit anti-P. carinii significantly more potent than the control drug, pentamidine”. In the series on Calf thymus DNA, the “DNA binding calf thymus ΔTm(°C)” value was determined as 7.3 °C.

Consider `c1cc2[nH]c(-c3ccc4[nH]c5ccc(-c6nc7cc(C8=NCCN8)ccc7[nH]6)cc5c4c3)nc2cc1C1=NCCN1` [Compound 8, 3,6-bis[2-imidazolinyl)-2-benzimidazoyl]carbazole tetrahydrochloride], for which, in series [1], the toxicity was found to be 0. The response vs control in vivo at 5 mg/kg in the series with Pneumocystis carinii (setting [2]) is 61.9 ± 14.5%. The “anti-P. carinii activity (in words)” value in the series with Pneumocystis carinii is recorded as “failed to exhibit anti-P. carinii significantly more potent than the control drug, pentamidine”; in the series with Pneumocystis carinii (listed as compound 8) it was “only moderate activity”. Also, in the series on Calf thymus DNA, the “DNA binding (in words)” value is “highly potent as a DNA binding agent”. In addition, in the series on Calf thymus DNA, the “DNA binding calf thymus ΔTm(°C)” value was 22.2 °C.

In general, MIC refers to the least concentration at which growth counts as inhibited. One may read the MFC as the smallest concentration meeting the test's criterion for killing the fungus. A high value points to weaker fungicidal potency. Consider `Cl.Cl.N=C(N)c1ccc2c(c1)[nH]c1cc(C(=N)N)ccc12` [Compound 9, 2,7-diamidinocarbazole dihydrochloride], for which the toxicity in series [1] came to 0. In the series on Pneumocystis carinii (setting [2]), the response vs control in vivo at 5 mg/kg was determined as 0.17 ± 0.06%. The “DNA binding calf thymus ΔTm(°C)” value in the series on Calf thymus DNA came out at 19.0 °C. Also, the MIC stood at 6.25 µg/mL against Cryptococcus neoformans (Cryptococcus neoformans, in vitro, H99 clinical isolate of C. neoformans) and 0.78 µg/mL against C. albicans (Candida albicans, in vitro, A39 clinical isolate of C. albicans). In addition, the minimal fungicidal concentration (MFC) turned out to be 50 µg/mL in the series on Cryptococcus neoformans (Cryptococcus neoformans, in vitro, H99 clinical isolate of C. neoformans, less than 0.01% survival of original inoculum) and 1.56 µg/mL against C. albicans (Candida albicans, in vitro, A39 clinical isolate of C. albicans, less than 0.01% survival of original inoculum). The “activity in vitro (in words)” value with Cryptococcus neoformans (setting [3]) and with C. albicans (setting [3]) was “highly active” throughout. In the series on Cryptosporidium parvum, the “activity against C. parvum (in words)” value is “effective”. For the same compound, the figures for the Efficacy in the series with Cryptosporidium parvum (14.6 µmol/kg oral), in the series with Cryptosporidium parvum (29.3 µmol/kg oral) and with Cryptosporidium parvum (58.6 µmol/kg oral) were 6.1 % control, 0.30% control and 0.89 % control, respectively.

For the compound `c1cc2c(cc1C1=NCCN1)[nH]c1cc(C3=NCCN3)ccc12` [Compound 10, 2,7-bis(2-imidazolinyl)carbazole dihydrochloride], the toxicity in series [1] is reported as 0. Also, the response vs control in vivo at 5 mg/kg in the series with Pneumocystis carinii (setting [2]) was found to be 0.5 ± 0.33%.

Regarding `N=C(N)c1ccc(OCCCCCOc2ccc(C(=N)N)cc2)cc1` [pentamidine, reference compound], in the series with Pneumocystis carinii (Pneumocystis carinii, iv, 336 h, read-out: in vivo activity against PCP cysts/g lung % control), the response vs control in vivo at 10 mg/kg stood at 1.84 ± 0.82%. Also, the “DNA binding calf thymus ΔTm(°C)” value with Calf thymus DNA came to 10.7 °C.

For the origin of these results see patent publication EP0831811B1, “CARBAZOLES FOR TREATING MICROBIAL INFECTIONS” (priority 1995, dated 1996).
